In assay [1] the target is T1, PRMT5 (Homo sapiens, UniProt O14744).
T1 construct: purchased Viva (custom protein)
Briefly: PRMT5 biochemical IC50 assay with SAM as cofactor. Conditions: PRMT5, SAM as cofactor; read-out: SAM IC50.

The target in assay [2] is T1, PRMT5. The experiment in a line: PRMT5 biochemical IC50 assay with no cofactor. Conditions: PRMT5, no cofactor; read-out: No Cofactor/rel IC50. The text has this:
Table 1 indicates IC50 values (μM) against PRMT5 for exemplary compounds in the presence of SAM as cofactor, with no cofactor, and with MTA as cofactor, respectively (columns 4-6). […] Ki values can be calculated from the IC50 values as described in the Examples section. As detailed in the Examples section, for the assay performed in the presence of SAM, IC50=Ki×1.5 (Ki=IC50/1.5).

The target in assay [3] is T1, PRMT5. Briefly: PRMT5 biochemical IC50 assay with MTA as cofactor. The note with it: PRMT5, MTA as cofactor; read-out: MTA IC50.
Assay [4] has as its system HAP1 MTAP-intact cell line. The experiment in a line: SDMA in-cell western assay, HAP1 MTAP-intact. It is filed as cell-based. The note with it: Homo sapiens, HAP1, SDMA in-cell western, HAP1 MTAP-intact; read-out: MTAP HAP1 intact IC50. In a few lines:
(§1)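 Compounds were tested in HAP1 cells differing only in MTAP status (endogenous expression versus null). Cellular SDMA levels were then measured by in-cell western, giving an IC50 in each background.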

In assay [5] the test system is HAP1 MTAP-deleted cell line. The experiment in a line: SDMA in-cell western assay, HAP1 MTAP-deleted. The note with it: for IC50: Homo sapiens, HAP1, SDMA in-cell western, HAP1 MTAP-deleted, read-out: HAP1 MTAP deleted IC50; for MTAP intact/deleted ratio: IC50 ratio HAP1 MTAP-intact / HAP1 MTAP-deleted, SDMA in-cell western. The class given is cell-based. A digest of the protocol:
as §1

Assay [6] relates to HAP1 MTAP-deleted cell line. The experiment in a line: Viability assay, MTAP-deleted cell line. It is filed as cell-based. The note with it: Homo sapiens, HAP1, viability assay, HAP1 MTAP-deleted; read-out: HAP1 MTAP deleted viability. The text has this:
Table 1 additionally indicates IC50 values in a viability assay for the MTAP-deleted cell line (column 10), indicating the effect of treatment with compound on cell survival.

T1 sequence (O14744 whole entry): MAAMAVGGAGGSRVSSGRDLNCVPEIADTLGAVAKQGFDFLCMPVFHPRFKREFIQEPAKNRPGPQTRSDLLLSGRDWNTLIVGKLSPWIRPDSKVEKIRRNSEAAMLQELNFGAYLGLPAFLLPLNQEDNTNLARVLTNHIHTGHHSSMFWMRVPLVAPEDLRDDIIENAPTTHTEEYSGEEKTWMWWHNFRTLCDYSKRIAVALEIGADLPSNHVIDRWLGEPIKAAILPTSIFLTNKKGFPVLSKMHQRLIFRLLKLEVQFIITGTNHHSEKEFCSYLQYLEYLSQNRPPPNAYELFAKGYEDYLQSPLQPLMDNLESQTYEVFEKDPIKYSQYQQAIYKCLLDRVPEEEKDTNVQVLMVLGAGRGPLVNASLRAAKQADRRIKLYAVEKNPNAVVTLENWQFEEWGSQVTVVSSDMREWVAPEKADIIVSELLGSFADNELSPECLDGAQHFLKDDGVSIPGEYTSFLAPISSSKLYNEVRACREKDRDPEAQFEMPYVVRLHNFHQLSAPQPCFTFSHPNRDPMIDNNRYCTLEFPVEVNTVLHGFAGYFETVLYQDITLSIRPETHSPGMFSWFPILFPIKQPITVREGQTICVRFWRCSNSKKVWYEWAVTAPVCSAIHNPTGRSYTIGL
T1 sequence (Q9BQA1 whole entry partner): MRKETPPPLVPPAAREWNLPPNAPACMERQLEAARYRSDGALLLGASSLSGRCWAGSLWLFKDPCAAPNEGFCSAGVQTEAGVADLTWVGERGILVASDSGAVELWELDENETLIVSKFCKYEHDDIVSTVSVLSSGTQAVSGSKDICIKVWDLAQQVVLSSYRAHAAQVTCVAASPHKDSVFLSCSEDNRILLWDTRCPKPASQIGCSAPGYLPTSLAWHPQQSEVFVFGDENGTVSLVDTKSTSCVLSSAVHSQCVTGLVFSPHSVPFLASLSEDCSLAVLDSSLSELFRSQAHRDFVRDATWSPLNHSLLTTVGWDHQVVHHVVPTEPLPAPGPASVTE

Consider `COc1ncc(NC(=O)C(=O)N2C[C@@H](C)CC[C@@H]2c2ccc(C)nc2)cc1C(N)=O` (single isomer, unassigned) [Compound 770], for which the IC50 at PRMT5 [1] is over 500 nM; on PRMT5 [2], over 500 nM; on PRMT5 [3], over 500 nM; in assay [4], over 1000 nM; in assay [5], over 1000 nM; in assay [6], over 10000 nM. Moreover, the MTAP intact/deleted ratio result in assay [5] was “C (an IC50 ratio of less than 3 fold)”.
`CCc1cc(NC(=O)C(=O)N2C[C@H](C)CC[C@H]2c2ccc3[nH]cnc3c2)cnc1N` (single isomer, unassigned) [Compound 771]: the IC50 at PRMT5 [1] is over 500 nM; on PRMT5 [2], over 500 nM; at PRMT5 [3], over 500 nM; in assay [4], over 1000 nM; in assay [5], over 1000 nM; in assay [6], over 10000 nM. Moreover, in assay [5], the MTAP intact/deleted ratio result is listed as “C (an IC50 ratio of less than 3 fold)”.
Regarding `C[C@H]1CC[C@H](c2ccc(-c3nccs3)cc2)N(C(=O)C(=O)Nc2cncc(C(N)=O)c2)C1` (single isomer, unassigned) [Compound 772], the IC50 at PRMT5 [1] is over 500 nM; at PRMT5 [2], over 500 nM; at PRMT5 [3] it was over 500 nM; in assay [4], over 1000 nM; in assay [5], over 1000 nM; in assay [6] it was over 10000 nM. In assay [5], the MTAP intact/deleted ratio entry is given as “B (an IC50 ratio greater than or equal to 3 fold but lower than 10 fold)”.
Consider `Cc1cc(NC(=O)C(=O)N2C[C@H](C)C(F)(F)C[C@H]2c2ccc(F)cc2)cnc1N` (single isomer, unassigned) [Compound 777], for which the IC50 on PRMT5 [1] is over 500 nM; at PRMT5 [2], over 500 nM; at PRMT5 [3], over 500 nM; in assay [4], over 1000 nM; in assay [5] it was over 1000 nM; in assay [6], over 10000 nM. Further, in assay [5], the MTAP intact/deleted ratio entry is reported as “B (an IC50 ratio greater than or equal to 3 fold but lower than 10 fold)”.
With `C[C@H]1CC[C@H](c2ccc3[nH]ncc3n2)N(C(=O)C(=O)Nc2cncc(C(N)=O)c2)C1` (single isomer, unassigned) [Compound 778], the IC50 on PRMT5 [1] was 50 to 500 nM; at PRMT5 [2], under 50 nM; at PRMT5 [3] it was under 50 nM; in assay [4] it was over 1000 nM; in assay [5], under 100 nM; in assay [6], 1000 to 10000 nM. Besides, the MTAP intact/deleted ratio entry in assay [5] is reported as “A (an IC50 ratio greater than or equal to 10 fold)”.
`Cc1cc(NC(=O)C(=O)N2C[C@@H](C)CC[C@@H]2c2ccc3[nH]ncc3n2)cnc1N` (single isomer, unassigned) [Compound 780]: the IC50 was over 500 nM on PRMT5 [1]; over 500 nM on PRMT5 [2]; over 500 nM at PRMT5 [3]; over 1000 nM in assay [4]; 100 to 1000 nM in assay [5]; over 10000 nM in assay [6]. The MTAP intact/deleted ratio entry in assay [5] is given as “A (an IC50 ratio greater than or equal to 10 fold)”.
Consider `Cc1cc(NC(=O)C(=O)N2C[C@H](C)CC[C@H]2c2ccn(-c3cc[nH]n3)n2)cnc1N` (single isomer, unassigned) [Compound 782], for which the IC50 at PRMT5 [1] was under 50 nM; on PRMT5 [2], under 50 nM; at PRMT5 [3], under 50 nM; in assay [4], 100 to 1000 nM; in assay [5], under 100 nM; in assay [6], under 1000 nM. Moreover, the MTAP intact/deleted ratio entry in assay [5] is reported as “A (an IC50 ratio greater than or equal to 10 fold)”.
For `C[C@@H]1CC[C@@H](c2ccc(-c3nccs3)cc2)N(C(=O)C(=O)Nc2cncc(C(N)=O)c2)C1` (single isomer, unassigned) [Compound 783], the IC50 on PRMT5 [1] is 50 to 500 nM; on PRMT5 [2], 50 to 500 nM; at PRMT5 [3], under 50 nM; in assay [4], over 1000 nM; in assay [5] it was under 100 nM; in assay [6] it was 1000 to 10000 nM. The MTAP intact/deleted ratio entry in assay [5] is “A (an IC50 ratio greater than or equal to 10 fold)”.
Turning to `CCc1cc(NC(=O)C(=O)N2C[C@@H](C)CC[C@@H]2c2ccc(C)nc2)cnc1N` (single isomer, unassigned) [Compound 784], the IC50 at PRMT5 [1] is 50 to 500 nM; at PRMT5 [2], under 50 nM; at PRMT5 [3], under 50 nM; in assay [4] it was over 1000 nM; in assay [5] it was under 100 nM; in assay [6], under 1000 nM. Besides, the MTAP intact/deleted ratio entry in assay [5] is “A (an IC50 ratio greater than or equal to 10 fold)”.
In the case of `Cc1cc(NC(=O)C(=O)N2C[C@H](C)CC[C@H]2c2cccc3[nH]ncc23)cnc1N` (single isomer, unassigned) [Compound 785], the IC50 is 50 to 500 nM on PRMT5 [1]; under 50 nM on PRMT5 [2]; under 50 nM on PRMT5 [3]; 100 to 1000 nM in assay [4]; under 100 nM in assay [5]; under 1000 nM in assay [6]. For the same compound, the MTAP intact/deleted ratio entry in assay [5] was “A (an IC50 ratio greater than or equal to 10 fold)”.
Regarding `Cc1cc(NC(=O)C(=O)N2C[C@@H](C)C(F)(F)C[C@@H]2c2ccc(F)cc2)cnc1N` (single isomer, unassigned) [Compound 786], the IC50 on PRMT5 [1] is 50 to 500 nM; at PRMT5 [2] it was under 50 nM; at PRMT5 [3] it was under 50 nM; in assay [4], 100 to 1000 nM; in assay [5], under 100 nM; in assay [6] it was under 1000 nM. The MTAP intact/deleted ratio result in assay [5] is on record as “A (an IC50 ratio greater than or equal to 10 fold)”.
For `C[C@@H]1CC[C@@H](c2ccc3[nH]ncc3n2)N(C(=O)C(=O)Nc2cncc(C(N)=O)c2)C1` (single isomer, unassigned) [Compound 787], the IC50 at PRMT5 [1] is over 500 nM; on PRMT5 [2], over 500 nM; at PRMT5 [3], over 500 nM; in assay [4] it was over 1000 nM; in assay [5], over 1000 nM; in assay [6] it was over 10000 nM. Also, in assay [5], the MTAP intact/deleted ratio result is given as “C (an IC50 ratio of less than 3 fold)”.
With `Cc1cc(NC(=O)C(=O)N2C[C@H](C)CC[C@H]2c2ccc3[nH]ncc3n2)cnc1N` (single isomer, unassigned) [Compound 788], the IC50 at PRMT5 [1] was 50 to 500 nM; on PRMT5 [2] it was under 50 nM; at PRMT5 [3] it was under 50 nM; in assay [4] it was 100 to 1000 nM; in assay [5] it was under 100 nM; in assay [6], under 1000 nM. The MTAP intact/deleted ratio entry in assay [5] is “A (an IC50 ratio greater than or equal to 10 fold)”.
As for `Cc1cc(NC(=O)C(=O)N2C[C@@H](C)CC[C@@H]2c2ccn(-c3cc[nH]n3)n2)cnc1N` (single isomer, unassigned) [Compound 789], the IC50 at PRMT5 [1] is over 500 nM; on PRMT5 [2], over 500 nM; on PRMT5 [3] it was over 500 nM; in assay [4], over 1000 nM; in assay [5] it was over 1000 nM; in assay [6] it was over 10000 nM. In addition, the MTAP intact/deleted ratio entry in assay [5] was “B (an IC50 ratio greater than or equal to 3 fold but lower than 10 fold)”.
As to `Cc1cc(NC(=O)C(=O)N2C[C@@H](C)CC[C@@H]2c2cccc3[nH]ncc23)cnc1N` (single isomer, unassigned) [Compound 790], the IC50 on PRMT5 [1] was over 500 nM; on PRMT5 [2], over 500 nM; on PRMT5 [3] it was over 500 nM; in assay [4], over 1000 nM; in assay [5], 100 to 1000 nM; in assay [6], over 10000 nM. Further, the MTAP intact/deleted ratio entry in assay [5] is on record as “A (an IC50 ratio greater than or equal to 10 fold)”.

Values taken from US11999727B2 (Tango Therapeutics, Inc., priority 2020, dated 2024).
